The values that follow come from ChEMBL document CHEMBL5725783, “Substituted sulfonamide compounds” (2017).

One may read the IC50 as the point on the concentration scale where inhibition reaches its midpoint.

The assay addresses Transient receptor potential cation channel subfamily A member 1 (Homo sapiens, UniProt O75762). The assay can be described thus: Fluorescence Assay: IC50s (effective concentration) of compounds on the human TRPA1 channel were determined using a Hamamatsu FDSS fluorescence plate reader. CHO cells expressing human TRPA1 were plated into 384-well plates, incubated overnight at 37° C., and loaded with BD calcium indicator dye for 1 hr at 37° C. followed by 15 minutes at room temperature. The assay buffer was Hank's Balanced Salt Solution (HBSS) containing 20 mM HEPES (pH readjusted to 7.4) along with 0.02% BSA.Following dye load and plate cool down, compounds were added to the cells using the FDSS while monitoring fluorescence to determine whether any of the test compounds have TRPA1 agonist activity. Plates were then incubated with compound for 20 minutes at room temperature prior to adding agonist. Following this incubation, […] cinnamaldehyde was added to all wells of the plate and block of this cinnamaldehyde induced calcium influx was measured.

Chain of Transient receptor potential cation channel subfamily A member 1 (O75762 whole entry): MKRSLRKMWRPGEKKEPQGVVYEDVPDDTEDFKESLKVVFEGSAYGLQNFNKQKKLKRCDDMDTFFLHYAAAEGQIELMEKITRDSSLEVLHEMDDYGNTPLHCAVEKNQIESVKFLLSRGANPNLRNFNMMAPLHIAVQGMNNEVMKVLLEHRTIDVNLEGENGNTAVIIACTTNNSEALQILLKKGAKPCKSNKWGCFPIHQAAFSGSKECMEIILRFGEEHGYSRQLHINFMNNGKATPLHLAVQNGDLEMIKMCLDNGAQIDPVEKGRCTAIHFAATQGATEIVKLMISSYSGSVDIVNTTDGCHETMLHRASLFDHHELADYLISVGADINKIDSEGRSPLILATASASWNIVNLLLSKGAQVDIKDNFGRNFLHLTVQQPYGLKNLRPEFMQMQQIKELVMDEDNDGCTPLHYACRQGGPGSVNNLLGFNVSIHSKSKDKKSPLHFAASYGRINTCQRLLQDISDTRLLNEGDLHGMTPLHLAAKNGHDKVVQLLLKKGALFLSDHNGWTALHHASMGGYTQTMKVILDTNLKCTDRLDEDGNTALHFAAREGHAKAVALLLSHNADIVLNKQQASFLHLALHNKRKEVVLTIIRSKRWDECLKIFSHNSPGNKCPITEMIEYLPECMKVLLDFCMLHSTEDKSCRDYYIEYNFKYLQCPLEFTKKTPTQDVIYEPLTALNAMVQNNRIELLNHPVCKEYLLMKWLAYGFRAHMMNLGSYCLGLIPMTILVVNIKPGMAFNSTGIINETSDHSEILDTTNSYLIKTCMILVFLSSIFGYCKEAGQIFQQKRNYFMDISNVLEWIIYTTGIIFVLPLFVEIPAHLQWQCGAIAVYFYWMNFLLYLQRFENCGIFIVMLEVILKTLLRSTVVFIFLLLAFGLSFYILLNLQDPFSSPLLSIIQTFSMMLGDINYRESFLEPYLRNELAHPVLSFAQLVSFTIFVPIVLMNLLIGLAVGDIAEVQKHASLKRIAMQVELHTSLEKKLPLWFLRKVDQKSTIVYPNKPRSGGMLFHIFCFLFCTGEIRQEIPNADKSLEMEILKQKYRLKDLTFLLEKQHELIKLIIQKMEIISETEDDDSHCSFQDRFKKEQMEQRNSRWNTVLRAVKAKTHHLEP

In the case of `CC(C)N(CC(=O)NCc1cc(C2=CCC(C(F)(F)F)CC2)ncn1)S(=O)(=O)c1ccc(F)cc1` (stereo unspecified), the IC50 amounted to 13 nM.
